Test results reported in patent US20030078274A1, “Method of reducing neuronal injury or apoptosis” (priority 1999, published 2003).

System: neurons in rat cerebrocortical cultures (gp120-induced apoptosis)
Assay: gp120-induced neuronal apoptosis in rat cerebrocortical cultures
Type: cell-based, Sprague-Dawley rats
Conditions: SB 203580 10 μM, applied 15 min before gp120
Method: The model used in the assays described below, i.e., rat cerebrocortical cultures, was prepared from embryos of Sprague-Dawley rats at day 15 to 17 of gestation. See Lei et al., Neuron 8:1087-1099 (1992) and Lipton et al., Nature 364:626-632 (1993). Cultures were used for experiments after 17 to 24 days in culture. […] Prior to some experiments, macrophages/microglia or neurons were depleted from the cultures by exposure to 7.5 mM L-leucine methyl ester or 2 mM N-methyl-D-aspartate (NMDA), respectively. See Lipton, NeuroReport 3:913-915 (1992). […] In some experiments, the Griess reaction was used to measure nitrite levels in the culture medium as an index of nitric oxide (NO) release. See Chao et al., Glia 16:276-284 (1996).
Cultures were transferred into Earle's Balanced Salt Solution (EBSS) and incubated for 24 hours with gp120, chemokines, Tuftsin fragment 1-3, i.e., Thr-Lys-Pro (TKP), p38 MAPK inhibitor SB 203580 (i.e., 4-(4-fluorophenyl)-2-(4-methylsulfinylphenyl)-5-(4-pyridyl)imidazole, Calbiochem, San Diego, Calif.), or combinations thereof. Chemokines or TKP were applied for 5 minutes and SB 203580 for 15 minutes prior to gp120 exposure.
TKP was obtained from Sigma (St. Louis, Mo.). Recombinant human MIP-1β, SDF-1α, SDF-1β, and recombinant rat RANTES were purchased from R&D systems ([…].) and Endogen (Woburn, Mass.), respectively. HIV-1 envelope glycoprotein gp120 from the strain SF2 was obtained from the NIH AIDS Research and Reference Reagent Program, Division of AIDS, NIAID, NIH. See Scandella et al., AIDS Res. Hum. Retroviruses 9:1233-1244 (1993). Additional gp120s from HIV-1 strains IIIB and RF2 were obtained from Genetech and the National Cancer Institute, respectively. TNFα, IFNγ, and IL-1β were from Genzyme (Cambridge, Mass.), Gibco BRL (Grand Island, N.Y.) and Endogen (Woburn, Mass.), respectively.
Neuronal apoptosis in the above-described assays was assessed using a variety of techniques, e.g., staining of permeabilized cells with propidium iodide to determine apoptotic morphology, and a neuron-specific antibody (against NeuN or MAP-2) to identify cell type. In brief, cells were fixed for 5 minutes with ice-cold acetone at −20° C. and, after three washes in PBS, for 4 minutes with 2% (w/v) paraformaldehyde solution in PBS at room temperature (RT). Acetone-paraformaldehyde-fixed cells were permeabilized using 0.2% Tween 20 in PBS (PBST), and non-specific binding sites were blocked by incubation for 1 hour with a 10% solution of heat-inactivated goat serum in PBST. To specifically stain neurons, cells were then incubated for 4 hours at RT or overnight at 4° C. with 1:500 dilutions of anti-MAP-2 (Sigma) or anti-NeuN monoclonal antibody (mAb; Chemicon, Temecula, Calif.). Their respective non-specific isotype antibodies served as controls. After three washes, the cells were incubated in a secondary polyclonal antibody (pAb) conjugated either to fluorescein isothiocyanate (FITC) or to horseradish peroxidase (HRP). In the case of HRP-coupled pAb, diaminobenzidine (DAB) served as the color substrate developed by incubation in a mixture of 1 mg/ml DAB and 0.8% H2O2 at a ratio of 3:1. Cellular nuclei were subsequently stained with […] propidium iodide for 5 minutes in the dark, and then coverslips were mounted on glass slides. Experiments were replicated at least 3 times with triplicate values in each experiment. Statistical significance was judged by an analysis of variance (ANOVA) followed by a Scheffé or Bonferroni/Dunn post hoc test.

## C[S+]([O-])c1ccc(-c2nc(-c3ccc(F)cc3)c(-c3ccncc3)[nH]2)cc1 (stereo not shown) [SB 203580, 4-(4-fluorophenyl)-2-(4-methylsulfinylphenyl)-5-(4-pyridyl)-1H-imidazole]
  effect on gp120SF2-induced neuronal apoptosis: substantially attenuated
